Read-outs that look alike come from different tables or passages of the source. *1 amine or outer side, *2 acyl side, *3 side chain or, on linkers, in order; H or OH if unused. Where a SMILES comes first, the peptide text is derived from it. [ ]: non-standard residue; d: D form. The star is where a group is joined. ξ: configuration not given here. X2 = CCC(C)(N*)C(=O)C1CC[C@@H](C(=O)N[CH]Cc2ccccc2)N1; X1 = O=C([C@@H]1CC(O)CN1[*:1])[*:2]; aIle = CC[C@@H](C)[C@H](N)C(=O)O; Thr(3ξ) = CC(O)[C@H](N)C(=O)O; ξIva = CCC(C)(N)C(=O)O; Aib = CC(C)(N)C(=O)O
What was measured:
[1] = tested on: DENV (Dengue virus type 2, strain New Guinea C)
[2] = tested on: ZIKV-mCherry (Cambodian strain FSS13025); assay: microbe, parasite or virus in culture; format: cell-based, Zika virus; settings: for AC50: Zika virus, Vero
[3] = tested on: mCherry-ZIKV in human neuronal progenitor cells; assay: microbe, parasite or virus in culture; format: cell-based, Zika virus; settings: for AC50: Zika virus, Neuronal progenitor cell
[4] = tested on: ZIKV-RLuc (Cambodian strain FSS13025); assay: microbe, parasite or virus in culture; format: cell-based, Zika virus; settings: for AC50 / IC50: Zika virus, Vero; for IC50: 48 h, read-out: Rluc-ZIKV (ZIKV Antiviral Assays), IC50
[5] = tested on: wild-type ZIKV (Ugandan MR766 strain) in Vero cells; assay: ZIKV cytopathic effect (CPE) inhibition qHTS assay, CellTiter-Glo readout; format: cell-based, Zika virus; settings: for AC50 / IC50: Zika virus; for IC50: read-out: ZIKV-infection (CPE, ZIKV Antiviral Assays), IC50
[6] = tested on: caspase-3 activity induced by ZIKV in Vero cells; assay: cells; format: cell-based; settings: Zika virus, read-out: Caspase 3 (ZIKV Antiviral Assays), IC50
in vitro = settings: African green monkey
[7] = read-out: Log AC50 (M) (converted)
[8] = Vero, read-out: Log AC50 (M) (converted)
[9] = Vero, from Hill fit of the response curve, 50% of maximum activity response, 194 cherry-picked compounds, protocol name not given, read-out: AC50
[10] = Vero, potency in log units (Molar) from Hill fit of the response curve, 194 cherry-picked compounds, protocol name not given, read-out: Log AC50 (converted)
[11] = Vero cells, wild-type ZIKV MOI 1, 48 hr, unit inferred
[12] = difference between neutral response and maximum compound response
[13] = ZIKV-infected Vero cells, 48 hr, unit inferred

Compound	CC-v2 (curve class of the dose response curve) [2]	Efficacy (difference between neutral response and maximum compound response) [2]	Max Resp (difference between neutral response and response at highest compound concentration) [2]	AC50 [2] [M]	AC50 [2, 7] [M]	Efficacy [5]	AC50 ([5]; Vero) [M]	IC50 ([5]; Vero, 48 h) [µM]	AC50 [5, 8] [M]	IC50 ([6]; Vero, 48 h) [µM]	IC50 [4] [µM]	CC50 (in vitro) [µM]	AC50 [5, 9] [M]	AC50 [5, 10] [M]	IC50 [5, 11] [µM]	Efficacy [5, 12]	IC50 [6, 13] [µM]	other results
CCN(CC)CCCC(C)Nc1ccnc2cc(Cl)ccc12 (stereo not shown) [NCGC00015256, chloroquine, reference compound]																		DENV active Yes/No [1]: No; ZIKV active Yes/No (ZIKV): No; WHV active Yes/No (WNV (Kern515/WN02)): No; SI value YFV (CC50/EC50) (YFV (YFV 17D)): 1.2; YFV active Yes/No (YFV (YFV 17D)): No
CS[C@H]1SC[C@@H]2C(=O)N(C)[C@H](C(C)C)C(=O)OC[C@H](NC(=O)c3cnc4ccccc4n3)C(=O)N[C@H](C)C(=O)N(C)[C@H]1C(=O)N(C)[C@H](C(C)C)C(=O)OC[C@H](NC(=O)c1cnc3ccccc3n1)C(=O)N[C@H](C)C(=O)N2C [NCGC00163548-03]	-1.1	-108.47	-100.29	2.99e-09	2.99e-09													Antiviral activity in human NPC [3]: moderate antiviral activity; DENV active Yes/No [1]: No; ZIKV active Yes/No (ZIKV): No; WHV active Yes/No (WNV (Kern515/WN02)): No; YFV active Yes/No (YFV (YFV 17D)): No
Cc1ccc2c(c1)Cc1c(C(=O)NN3CCCCC3)nn(-c3ccc(Cl)cc3Cl)c1-2 [NCGC00167846-01]	-1.3	-70.543	-100.29	6.7e-07	6.7e-07													CC-v2 (curve class classification v2 of the dose response curve) [4]: -1.1; Efficacy (difference between neutral response and maximum compound response) [4]: -95.949; Max Resp (difference between neutral response and compound response for highest compound concentration) [4]: -99.943; AC50 [4]: 4.14e-06 M; AC50 [4, 7]: 4.14e-06 M; Antiviral activity in human NPC [3]: effectively inhibited ZIKV in NPC cells; Efficacy [3]: -97.35; Max Resp [3]: -80.167; AC50 [3]: 3.98e-05 M; AC50 [3, 7]: 3.98e-05 M; AC50 (Vero cells): 4.14 µM; Log AC50 (M) (Vero cells): -5.3827 M; Activity against DENV [1]: active against both DENV and ZIKV; DENV active Yes/No [1]: Yes; SI value DENV (CC50/EC50) [1]: 16; Activity against ZIKV (ZIKV): active against both DENV and ZIKV; SI value ZIKV (CC50/EC50) (ZIKV): 31; ZIKV active Yes/No (ZIKV): Yes; WHV active Yes/No (WNV (Kern515/WN02)): No; YFV active Yes/No (YFV (YFV 17D)): No
C=C(C)C(=O)O[C@H]1CC2=CC(C/C(C)=C/[C@H]3OC(=O)C(=C)[C@H]13)OC2=O (stereo partly shown) [NCGC00384526-01]	4	0	-97.701			-93.113	1.43e-05	14.3	1.43e-05	6.46	10.2	> 50						CC-v2 (curve class classification of the dose response curve) [5]: -1.1
C=C1CC[C@@]2(OC1)O[C@H]1CC3C4CC=C5C[C@@H](O[C@@H]6O[C@@H](C)[C@H](O)[C@@H](O)[C@H]6O)C[C@@H](O[C@@H]6O[C@H](C)[C@H](O)[C@H](O)[C@H]6O[C@@H]6O[C@@H](C)[C@H](O)[C@@H](O)[C@H]6O)[C@]5(C)C4CC[C@]3(C)[C@H]1[C@@H]2C (stereo partly shown) [NCGC00384710-01]	-1.2	-59.162	-100.305	7.14e-07	7.14e-07						6.95		1.23e-05	1.23e-05	12.3	-26.266	1.24	CC50 at 48 h (in vitro): > 50 µM
C=C(C)C(C)C1OC23CC4(CO2)C(CCC2C5(C)CCC(OC6OCC(O)C(OC7OC(CO)C(O)C(OC8OCC(O)C(O)C8O)C7O)C6OC6OC(CO)C(O)C6O)C(C)(C)C5CCC24C)C3C(C)(O)C1OC(C)=O (stereo not shown) [NCGC00384732-01]	-1.4	-78.707	-96.911								6.95		1.38e-05	1.38e-05	13.8	-32.277	0.16	CC50 at 48 h (in vitro): > 50 µM
C[C@@H]1O[C@@H](O[C@H]2[C@H](OC(=O)[C@]34CCC(C)(C)C[C@H]3C3=CCC5[C@@]6(C)C[C@H](O)[C@H](O[C@@H]7O[C@H](C(=O)O)[C@@H](O)[C@H](O)[C@H]7O)[C@@](C)(CO)C6[C@H](O)C[C@@]5(C)[C@]3(C)CC4)OC[C@H](O)[C@@H]2O)[C@H](O)[C@H](O)[C@H]1O[C@@H]1OC[C@@H](O)[C@H](O[C@@H]2O[C@@H](C)[CH][C@@H](O)[C@H]2O)[C@H]1O (stereo partly shown) [NCGC00384879-01]	-1.2	-58.138	-66.904	6.35e-10	6.35e-10	-56.214	4.36e-06	4.36	4.36e-06	5.64	0.13	> 50						CC-v2 (curve class classification of the dose response curve) [5]: -3
CC1(C)CC[C@]2(C(=O)O)CC[C@]3(C)C(=CCC4[C@@]5(C)C[C@H](O)[C@H](O[C@@H]6OC[C@H](O)[C@H](O)[C@H]6O)[C@@](C)(CO)C5CC[C@]43C)[C@@H]2C1 (stereo partly shown) [NCGC00384893-01]	-1.4	-59.557	-100.29			-24.539	5.44e-06	5.44	5.44e-06	> 48	9.81							CC50 at 48 h (in vitro; Vero cells): > 50 µM
C[C@H]1CC[C@@]2(OC1)O[C@H]1CC3C4CC[C@H]5C[C@@H](O[C@@H]6O[C@H](CO)[C@H](O[C@@H]7O[C@H](CO)[C@@H](O)[C@H](O[C@@H]8OC[C@@H](O)[C@H](O)[C@H]8O)[C@H]7O[C@@H]7O[C@H](CO)[C@@H](O)[C@H](O)[C@H]7O)[C@H](O)[C@H]6O)[C@H](O)C[C@]5(C)C4=CC(=O)[C@]3(C)[C@H]1[C@@H]2C (stereo partly shown) [NCGC00385095-01]	-1.4	-65.601	-99.657								6.95		1.55e-05	1.55e-05	15.5	-21.201	7.84	CC50 at 48 h (in vitro): > 50 µM
CC[C@@H](C)[C@H](NC(=O)C(C)(C)NC(=O)[C@H](CCC(N)=O)NC(=O)C(C)(CC)NC(=O)[C@H](Cc1c[nH]c2ccccc12)NC(C)=O)C(=O)N[C@H](C(=O)NC(C)(C)C(=O)N[C@@H](CC(C)C)C(=O)NC(C)(C)C(=O)N1CCC[C@H]1C(=O)N[C@@H](CCC(N)=O)C(=O)NC(C)(C)C(=O)N1CC(O)C[C@H]1C(=O)NC(C)(CC)C(=O)C1CC[C@@H](C(=O)N[CH]Cc2ccccc2)N1)C(C)O (stereo partly shown) [NCGC00385349-01] (Ac-W[ξIva]Q[Aib][aIle][Thr(3ξ)][Aib]L[Aib]PQ[Aib][X1]-X2)	-1.4	-52.827	-100.29			-36.779	1e-05	10	1e-05	> 48	4.52	> 50						CC-v2 (curve class classification of the dose response curve) [5]: -3
CCC/C=C/C(=O)O[C@H]1CC(C)(C)CC2[C@@]13[C@H](O)C[C@]1(C)[C@@]2(CCC2[C@@]4(C)CC[C@H](O[C@@H]5O[C@H](C(=O)O)[C@@H](O)[C@H](O[C@@H]6O[C@H](CO)[C@H](O)[C@H](O)[C@H]6O[C@@H]6O[C@@H](C)[C@H](O)[C@@H](O)[C@H]6O[C@@H]6OC[C@](O)(CO)[C@H]6O)[C@H]5O[C@@H]5O[C@H](CO)[C@H](O)[C@H](O)[C@H]5O)C(C)(C)C4CC[C@]21C)O[C@H]3O (stereo partly shown) [NCGC00385970-01]	-1.3	-68.04	-100.305	2.53e-06	2.53e-06						2.23	> 50	3.09e-06	3.09e-06	3.09	-40.513	0.5	CC-v2 (curve class classification of the dose response curve) ([5]; curve class v2 (Inglese et al. 2006)): -1.2
